Assay results published in patent publication US12496304B2, “Selective glucocorticoid receptor modifiers for treating impaired skin wound healing” (AKRIBES BIOMEDICAL GMBH, priority 2019, dated 2025).
Read-outs that look alike come from different tables or passages of the source.

How the values were obtained:
[1] = system: human dermal fibroblast (HDF) cells; assay: Fibroblast-derived matrix formation (FDM) assay, 3D fibroblast culture; assay type: cell-based; conditions: for formation of fibroblast-derived matrix (3D): WE from patient #92 (FIG. 12)
Experimental: Human dermal fibroblast (HDF) cells were seeded at 1250 cells/well on day −3 into 384-well tissue culture plates, which had been pre-coated for 1 hour at 37° C. with 0.2% gelatin solution (Sigma). When the cells reached confluence (=day 0), a matrix promoting supplement (vitamin C: 2-phospho-L-ascorbic acid trisodium salt, 100 μg/ml; Sigma) was added together with test samples containing TGF-β1 or graded concentrations of compounds −/+WE as described for the HDF proliferation assay. After 4 days, medium was replaced by fresh vitamin C—and stimulus—as well as compound-containing medium, maintaining the conditions initiated on day 0. TGF-β1 was included as a positive control to promote FDM formation. After a total incubation time of 7 to 8 days, FDM production was measured in fixed cultures via SRB staining and evaluated as described above. In some cases, the experiment was stopped and evaluated already on day 4.

glucocorticoid receptor = target: T1, glucocorticoid receptor (Homo sapiens, UniProt P04150); conditions: for localization of the glucocorticoid receptor: 45 minutes at 37° C.
T1 sequence (P04150 1-777): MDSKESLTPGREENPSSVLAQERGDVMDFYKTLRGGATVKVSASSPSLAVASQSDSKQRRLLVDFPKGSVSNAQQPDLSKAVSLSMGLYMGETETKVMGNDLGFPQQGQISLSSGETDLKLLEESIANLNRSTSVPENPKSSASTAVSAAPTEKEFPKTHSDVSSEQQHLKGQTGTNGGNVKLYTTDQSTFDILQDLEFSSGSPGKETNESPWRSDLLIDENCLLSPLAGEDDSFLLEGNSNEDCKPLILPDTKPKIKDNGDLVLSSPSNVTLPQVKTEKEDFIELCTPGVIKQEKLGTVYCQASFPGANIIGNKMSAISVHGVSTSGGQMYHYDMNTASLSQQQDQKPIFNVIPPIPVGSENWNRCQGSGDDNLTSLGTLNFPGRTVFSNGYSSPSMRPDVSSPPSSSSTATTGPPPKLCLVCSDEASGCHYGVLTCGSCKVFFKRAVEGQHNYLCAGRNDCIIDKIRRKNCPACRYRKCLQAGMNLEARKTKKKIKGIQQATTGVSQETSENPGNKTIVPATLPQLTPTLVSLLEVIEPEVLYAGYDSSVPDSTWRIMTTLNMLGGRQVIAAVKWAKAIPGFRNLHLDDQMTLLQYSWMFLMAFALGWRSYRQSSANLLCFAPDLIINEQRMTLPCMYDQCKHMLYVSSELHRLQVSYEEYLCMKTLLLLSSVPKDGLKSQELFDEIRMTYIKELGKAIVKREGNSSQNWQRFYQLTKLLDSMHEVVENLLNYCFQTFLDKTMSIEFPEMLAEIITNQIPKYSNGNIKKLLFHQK

[2] = system: primary human dermal fibroblasts (HDF); assay: Fibroblast proliferation assay (2D) in the presence of wound exudate; assay type: cell-based; conditions: for fibroblast proliferation (2D) with wound exudate: graded concentrations
Experimental: (§1) Primary human dermal fibroblasts (HDF) were purchased from CELLnTEC, Bern. They were routinely grown in Dulbecco's modified Eagle's medium (DMEM) containing 10% FCS, 2 mM glutamine, and 100 U/ml penicillin/100 μg/ml streptomycin. Media, antibiotics, and glutamine were bought from Lonza. The cells were used at passage 5-15. Cells were trypsinized and seeded at 2500 cells/well in 30 μl into the inner wells of 384-well plates in the absence or presence of graded compound concentrations with or without different dilutions of sterile-filtered WE in medium. For control samples, 30 μl medium was added instead of specific stimuli. The outer wells were loaded with sterile water. The cells were incubated for 72 hours at 37° C.
(§2) At the end of the incubation period, supernatants were removed for the determination of IL-1β, and the cells were fixed with 4% paraformaldehyde (Morphisto) for 15 minutes at room temperature and washed 3 times with PBS. A control plate was fixed after the overnight adherence of the cells (day 1) to determine the starting cell number.
Total cellular protein was determined as a measure of cell number by staining the fixed cells with sulforhodamine B (SRB, Sigma). A 0.4% SRB solution in 1% acetic acid was added to the wells for 30 minutes. The wells were then washed with 1% acetic acid until the wash solution remained colorless. After drying, the dye was eluted with 10 mM Tris-HCl, pH8.5, and absorbance was measured either at 550 or 492 nm for lower and higher cell densities, respectively. The average absorbance of the sample representing the day 1 starting cell number was subtracted from the absorbance values of the WE-treated cells.
All experiments were carried out in triplicate for each sample and concentration, and means±standard deviation (SD) were used for the evaluation of the experiment. Results are expressed as percentage of control values for unstimulated cells.

IL-1β = IL-1β secretion into the supernatant in the fibroblast proliferation assay (ELISA); assay type: cell-based, human; conditions: graded concentrations
Experimental: as §1, §2
IL-1β levels were determined with a commercial ELISA kit. The amount of IL-1β contained in the wound exudate added to the cells was subtracted from the total IL-B in the supernatants in order to determine the cytokine secreted by the cells.

IL-8 [3] = assay: Primary human monocyte cytokine secretion assay (spontaneous IL-8); assay type: cell-based; conditions: 16 hours (FIG. 16B)
Experimental: Primary human monocytes were prepared from peripheral blood mononuclear cells (PBMC). PBMC were isolated from buffy coats obtained from the Red Cross, Vienna, using LymphoPrep (Technoclone). 30 ml of buffy concentrate was diluted 1:2 with PBS, gently underlayered with 15 ml Lymphoprep in a 50 ml Falcon tube and centrifuged for 25 minutes at 1800 rpm at 21° C. The interphase was carefully transferred to a new Falcon tube and filled up to 50 ml with ice cold PBS. After another centrifugation step (10 minutes, 1200 rpm, 4° C.), the cell pellet was washed 3 times with PBS, resuspended in RPMI medium containing 20% FCS and 10% DMSO and frozen in liquid nitrogen. Monocytes were generated from frozen aliquots using positive selection with the CD14 Beads-Kit (Miltenyi) on an autoMACS-Sorter (Miltenyi) according to the manufacturer's instructions.
Cells were seeded at 8×10^5/ml in 50 μl/well of a 384-well plate and combined cells with graded concentrations of test compounds. After 16 hours, the supernatants were transferred to fresh plates and frozen at −20° C. for IL-8 analysis, using a commercial ELISA kit.

IL-8 [4] = assay: U937 cell stimulation assay (LPS-induced IL-8); assay type: cell-based, human; conditions: LPS 100 ng/ml, 16 hours (FIG. 16A)
Experimental: The human monocytic cell line U937 (ATCC CRL 1593) was routinely grown in RPMI_1640 supplemented by 10% FCS and 2 mM glutamine, and 100 U/ml penicillin/100 μg/ml streptomycin. Cells were seeded at 4×10^5/ml in 50 μl/well of a 384-well plate and combined cells with graded concentrations of test compounds and LPS at 100 ng/ml. After 16 hours, the supernatants were transferred to fresh plates and frozen at −20° C. for IL-8 analysis, using a commercial ELISA kit.

| SMILES | formation of fibroblast-derived matrix (3D) [1] | localization of the glucocorticoid receptor (glucocorticoid receptor; 0.1 nM) | localization of the glucocorticoid receptor (glucocorticoid receptor; 1 nM) | localization of the glucocorticoid receptor (glucocorticoid receptor; 100 nM) | localization of the glucocorticoid receptor (glucocorticoid receptor; 10 nm) | IL-1β secretion into the supernatant (IL-1β; WE-1 (FIG. 2B, 9B)) | IL-1β secretion into the supernatant (IL-1β; WE-2 (FIG. 10B)) | IL-1β secretion into the supernatant (IL-1β; WE-3 (FIG. 11B)) | fibroblast proliferation (2D) with wound exudate ([2]; WE-1 (FIG. 2A, 9A)) | fibroblast proliferation (2D) with wound exudate ([2]; WE-2 (FIG. 10A)) | fibroblast proliferation (2D) with wound exudate ([2]; WE-3 (FIG. 11A)) | other results |
| --- | --- | --- | --- | --- | --- | --- | --- | --- | --- | --- | --- | --- |
| C[C@H](NC(=O)C(C)(F)F)[C@H](Oc1ccc2c(cnn2-c2cccc(C(=O)NC3CCOC3)c2)c1)c1ccc2c(c1)OCCO2 (stereo partly drawn) [AZD7594, 3-(5-((1R,2S)-2-(2,2-difluoropropanamido)-1-(2,3-dihydrobenzo[b][1,4]dioxin-6-yl)propoxy)-1H-indazol-1-yl)-N-(tetrahydrofuran-3-yl)benzamide] | most active of the SEGRM tested in 3D culture | N/C | N | N | N |  |  |  |  |  |  | fibroblast proliferation, % proliferation of respective WE control ([2]; 1 μM, WE-02, WE control set to 100%): 196%; fibroblast proliferation, % proliferation of respective WE control ([2]; 1 μM, WE-03, WE control set to 100%): 161%; fibroblast proliferation, % proliferation of respective WE control ([2]; 1 μM, WE-04, WE control set to 100%): 1139%; fibroblast proliferation, % proliferation of respective WE control ([2]; 1 μM, WE-05, WE control set to 100%): 203%; fibroblast proliferation, % proliferation of respective WE control ([2]; 1 μM, WE-37, WE control set to 100%): 171%; fibroblast proliferation, % proliferation of respective WE control ([2]; 1 μM, WE-77, WE control set to 100%): 128%; efficacy on fibroblast proliferation compared with mapracorat ([2]; 1 μM, plurality of different wound exudates): comparable to the effect of mapracorat |
| CCOC[C@]12Cc3cnn(-c4ccc(F)cc4)c3C=C1CCN(S(=O)(=O)c1ccc(C(F)(F)F)cc1)C2 [CORT108297] |  |  | N/C | N | N |  |  |  |  |  |  |  |
| C[C@H]1C[C@H]2[C@@H]3CCC4=CC(=O)C=C[C@]4(C)[C@@]3(F)[C@@H](O)C[C@]2(C)[C@@]1(O)C(=O)CCl [Clobetasol] |  |  |  |  |  |  |  |  |  |  |  | glucocorticoid receptor localization, positive control (glucocorticoid receptor): shows nuclear staining |
| CC(C)(C[C@@](O)(Cc1cc2ccncc2[nH]1)C(F)(F)F)c1cc(F)ccc1O [HY14234] | found to be active | N/C | N | N | N | inhibited IL-1β secretion at the same concentrations | inhibition of IL-1β secretion was negligible | inhibited IL-1β secretion at the same concentrations | dose-dependent partial reversion of the wound exudate (WE)-induced inhibition of fibroblast proliferation | dose-dependently reversed inhibition of wound exudate (WE)-induced fibroblast proliferation | dose-dependently reversed inhibition of wound exudate (WE)-induced fibroblast proliferation | spontaneous IL-8 secretion in human monocytes (IL-8 [3]): inhibited both LPS-induced and spontaneous IL-8 secretion; LPS-induced IL-8 secretion in U937 cells (IL-8 [4]): inhibited both LPS-induced and spontaneous IL-8 secretion |
| Cc1noc(=O)c2ccc(NC(=O)C(O)(CC(C)(C)c3cccc4c3OCC4)C(F)(F)F)cc12 (centres unmarked) [ZK216348] | positive effect |  |  |  |  | inhibited IL-1β secretion at the same concentrations | inhibition of IL-1β secretion was negligible | inhibited IL-1β secretion at the same concentrations | dose-dependent partial reversion of the wound exudate (WE)-induced inhibition of fibroblast proliferation | dose-dependently reversed inhibition of wound exudate (WE)-induced fibroblast proliferation | dose-dependently reversed inhibition of wound exudate (WE)-induced fibroblast proliferation | rescue of fibroblasts in 2D culture from wound-exudate-induced inhibition of proliferation, compared with HY14234 ([2]; FIGS. 9A, 10A, 11A): less efficient |
| CC#C[C@]1(O)CC[C@H]2[C@@H]3CCC4=CC(=O)CCC4=C3[C@@H](c3ccc(N(C)C)cc3)C[C@@]21C [mifepristone] |  |  |  |  |  |  |  |  |  |  |  | effect on the matrix-promoting activity of BI-653048 ([1]; mifepristone 1 μM, WE-1 (FIG. 4)): completely abrogated |
